# Measured values taken from ChEMBL document CHEMBL1143799, “Synthesis and primary cytotoxicity evaluation of new imidazo[2,1-b]thiazole derivatives” (2007).
# Experiments:
# Format in all cases: functional
# HT-29 = assay: Growth inhibition of human HT29 cells after 48 hrs by SRB protein assay; conditions: HT-29, 48 h; for TGI: read-out: Log TGI (converted)
# RXF 393 = assay: Growth inhibition of human RXF393 cells after 48 hrs by SRB protein assay; conditions: RXF 393, 48 h; for TGI: read-out: Log TGI (converted)
# T47D = assay: Growth inhibition of human T47D cells after 48 hrs by SRB protein assay; conditions: for TGI: read-out: Log TGI (converted)
# NCI-H460 = assay: Growth inhibition of human NCI-H460 cells after 48 hrs by SRB protein assay; conditions: NCI-H460, 48 h; for TGI: read-out: Log TGI (converted)
# SF-268 = assay: Growth inhibition of human SF268 cells after 48 hrs by SRB protein assay; conditions: SF-268, 48 h; for TGI: read-out: Log TGI (converted)
# SF-295 = assay: Growth inhibition of human SF295 cells after 48 hrs by SRB protein assay; conditions: SF-295, 48 h; for TGI: read-out: Log TGI (converted)
# ACHN = assay: Growth inhibition of human ACHN cells after 48 hrs by SRB protein assay; conditions: for TGI: read-out: Log TGI (converted)
# U-251 = assay: Growth inhibition human U251 of cells after 48 hrs by SRB protein assay; conditions: U-251, 48 h; for TGI: read-out: Log TGI (converted)
# PC-3 = assay: Growth inhibition of human PC3 cells after 48 hrs by SRB protein assay; conditions: PC-3, 48 h; for TGI: read-out: Log TGI (converted)
# HOP-92 = assay: Growth inhibition of human HOP92 cells after 48 hrs by SRB protein assay; conditions: HOP-92, 48 h; for TGI: read-out: Log TGI (converted)
# NCI-H23 = assay: Growth inhibition of human NCI-H23 cells after 48 hrs by SRB protein assay; conditions: NCI-H23, 48 h; for TGI: read-out: Log TGI (converted)
# OVCAR-8 = assay: Growth inhibition of human OVCAR8 cells after 48 hrs by SRB protein assay; conditions: OVCAR-8, 48 h; for TGI: read-out: Log TGI (converted)
# COLO 205 = assay: Growth inhibition of human COLO205 cells after 48 hrs by SRB protein assay; conditions: COLO 205, 48 h; for TGI: read-out: Log TGI (converted)
# NCI-H522 = assay: Growth inhibition of human NCI-H522 cells after 48 hrs by SRB protein assay; conditions: NCI-H522, 48 h; for TGI: read-out: Log TGI (converted)
# HCT-116 = assay: Growth inhibition of human HCT116 cells after 48 hrs by SRB protein assay; conditions: HCT-116, 48 h; for TGI: read-out: Log TGI (converted)
# EKVX = assay: Growth inhibition of human EKVX cells after 48 hrs by SRB protein assay; conditions: for TGI: read-out: Log TGI (converted)
# SK-MEL-2 = assay: Growth inhibition of human SK-MEL-2 cells after 48 hrs by SRB protein assay; conditions: SK-MEL-2, 48 h; for TGI: read-out: Log TGI (converted)
# OVCAR-5 = assay: Growth inhibition of human OVCAR5 cells after 48 hrs by SRB protein assay; conditions: OVCAR-5, 48 h; for TGI: read-out: Log TGI (converted)
# Hs-578T = assay: Growth inhibition of human HS578T cells after 48 hrs by SRB protein assay; conditions: for TGI: read-out: Log TGI (converted)
# CAKI-1 = assay: Growth inhibition of human CAKI1 cells after 48 hrs by SRB protein assay; conditions: CAKI-1, 48 h; for TGI: read-out: Log TGI (converted)
# DU-145 = assay: Growth inhibition of human DU145 cells after 48 hrs by SRB protein assay; conditions: DU-145, 48 h; for TGI: read-out: Log TGI (converted)
# KM12 = assay: Growth inhibition of human KM12 cells after 48 hrs by SRB protein assay; conditions: KM12, 48 h; for TGI: read-out: Log TGI (converted)
# MDA-MB-231 = assay: Growth inhibition of MDA-MB-231 cells after 48 hrs by SRB protein assay; conditions: Homo sapiens, MDA-MB-231, 48 h; for TGI: read-out: Log TGI (converted)
# HCT-15 = assay: Growth inhibition of human HCT15 cells after 48 hrs by SRB protein assay; conditions: HCT-15, 48 h; for TGI: read-out: Log TGI (converted)
# HOP-62 = assay: Growth inhibition of human HOP62 cells after 48 hrs by SRB protein assay; conditions: HOP-62, 48 h; for TGI: read-out: Log TGI (converted)
# RPMI-8226 = assay: Growth inhibition of human RPMI8226 cells after 48 hrs by SRB protein assay; conditions: RPMI-8226, 48 h; for TGI: read-out: Log TGI (converted)
# BT-549 = assay: Growth inhibition of human BT549 cells after 48 hrs by SRB protein assay; conditions: BT-549, 48 h; for TGI: read-out: Log TGI (converted)
# M14 = assay: Growth inhibition of human M14 cells after 48 hrs by SRB protein assay; conditions: M14, 48 h; for TGI: read-out: Log TGI (converted)
# A549 = assay: Growth inhibition of human A549 cells after 48 hrs by SRB protein assay; conditions: A549, 48 h; for TGI: read-out: Log TGI (converted)
# CCRF-CEM = assay: Growth inhibition of human CCRF-CEM cells after 48 hrs by SRB protein assay; conditions: for TGI: read-out: Log TGI (converted)
# UO-31 = assay: Growth inhibition of human UO31 cells after 48 hrs by SRB protein assay; conditions: UO-31, 48 h; for TGI: read-out: Log TGI (converted)
# MCF7 = assay: Growth inhibition of human MCF7 cells after 48 hrs by SRB protein assay; conditions: MCF7, 48 h; for TGI: read-out: Log TGI (converted)
# SK-MEL-5 = assay: Growth inhibition of human SK-MEL-5 cells after 48 hrs by SRB protein assay; conditions: SK-MEL-5, 48 h; for TGI: read-out: Log TGI (converted)
# SK-OV-3 = assay: Growth inhibition of human SK-OV-3 cells after 48 hrs by SRB protein assay; conditions: SK-OV-3, 48 h; for TGI: read-out: Log TGI (converted)
# SW-620 = assay: Growth inhibition of human SW620 cells after 48 hrs by SRB protein assay; conditions: SW-620, 48 h; for TGI: read-out: Log TGI (converted)
# SF-539 = assay: Growth inhibition of human SF539 cells after 48 hrs by SRB protein assay; conditions: SF-539, 48 h; for TGI: read-out: Log TGI (converted)
# UACC-62 = assay: Growth inhibition of human UACC62 cells after 48 hrs by SRB protein assay; conditions: UACC-62, 48 h; for TGI: read-out: Log TGI (converted)
# NCI-H322M = assay: Growth inhibition of human NCI-H322M cells after 48 hrs by SRB protein assay; conditions: for TGI: read-out: Log TGI (converted)
# MOLT-4 = assay: Growth inhibition of human MOLT4 cells after 48 hrs by SRB protein assay; conditions: MOLT-4, 48 h; for TGI: read-out: Log TGI (converted)
smiles,measurement,setting,value
O=C(Cc1csc2nc(-c3ccc(Br)cc3)cn12)N/N=C/c1ccccc1,GI50,HT-29,43.7 µM
same,TGI,HT-29,> 100 µM
same,GI50,RXF 393,14.5 µM
same,TGI,RXF 393,38.9 µM
same,GI50,T47D,37.2 µM
same,TGI,T47D,> 100 µM
same,GI50,NCI-H460,52.5 µM
same,TGI,NCI-H460,> 100 µM
same,GI50,SF-268,> 100 µM
same,TGI,SF-268,> 100 µM
same,GI50,SF-295,12 µM
same,TGI,SF-295,37.2 µM
same,GI50,ACHN,10.7 µM
same,TGI,ACHN,25.7 µM
same,GI50,U-251,12.9 µM
same,TGI,U-251,32.4 µM
same,GI50,PC-3,20.4 µM
same,TGI,PC-3,> 100 µM
same,GI50,HOP-92,12.3 µM
same,TGI,HOP-92,37.2 µM
same,GI50,NCI-H23,12.6 µM
same,TGI,NCI-H23,61.7 µM
same,GI50,OVCAR-8,2.34 µM
same,TGI,OVCAR-8,20.4 µM
same,GI50,COLO 205,66.1 µM
same,TGI,COLO 205,> 100 µM
same,GI50,NCI-H522,14.1 µM
same,TGI,NCI-H522,60.3 µM
same,GI50,HCT-116,9.33 µM
same,TGI,HCT-116,21.4 µM
same,GI50,EKVX,6.92 µM
same,TGI,EKVX,52.5 µM
same,GI50,SK-MEL-2,33.1 µM
same,TGI,SK-MEL-2,> 100 µM
same,GI50,OVCAR-5,30.9 µM
same,TGI,OVCAR-5,> 100 µM
same,GI50,Hs-578T,16.2 µM
same,TGI,Hs-578T,51.3 µM
same,GI50,CAKI-1,30.2 µM
same,TGI,CAKI-1,81.3 µM
same,GI50,DU-145,14.5 µM
same,TGI,DU-145,44.7 µM
same,GI50,KM12,26.3 µM
same,TGI,KM12,> 100 µM
same,GI50,MDA-MB-231,12.9 µM
same,TGI,MDA-MB-231,57.5 µM
same,GI50,HCT-15,16.2 µM
same,TGI,HCT-15,> 100 µM
same,GI50,HOP-62,15.1 µM
same,TGI,HOP-62,39.8 µM
same,GI50,RPMI-8226,7.41 µM
same,TGI,RPMI-8226,> 100 µM
same,GI50,BT-549,12.9 µM
same,TGI,BT-549,49 µM
same,GI50,M14,20.9 µM
same,TGI,M14,> 100 µM
same,GI50,A549,13.5 µM
same,TGI,A549,40.7 µM
same,GI50,CCRF-CEM,17.4 µM
same,TGI,CCRF-CEM,> 100 µM
same,GI50,UO-31,57.5 µM
same,TGI,UO-31,> 100 µM
same,GI50,MCF7,75.9 µM
same,TGI,MCF7,> 100 µM
same,GI50,SK-MEL-5,5.62 µM
same,TGI,SK-MEL-5,26.9 µM
same,GI50,SK-OV-3,66.1 µM
same,TGI,SK-OV-3,> 100 µM
same,GI50,SW-620,18.6 µM
same,TGI,SW-620,63.1 µM
same,GI50,SF-539,16.2 µM
same,TGI,SF-539,39.8 µM
same,GI50,UACC-62,11.5 µM
same,TGI,UACC-62,28.2 µM
same,GI50,NCI-H322M,19.1 µM
same,TGI,NCI-H322M,93.3 µM
same,GI50,MOLT-4,6.76 µM
same,TGI,MOLT-4,37.2 µM
Nc1nc2[nH]cnc2c(=S)[nH]1 [THIOGUANINE],GI50,HT-29,1.15 µM
same,TGI,HT-29,105 µM
same,GI50,RXF 393,0.759 µM
same,TGI,RXF 393,7.08 µM
same,GI50,T47D,2.04 µM
same,TGI,T47D,107 µM
same,GI50,NCI-H460,0.676 µM
same,TGI,NCI-H460,20 µM
same,GI50,SF-268,1.15 µM
same,TGI,SF-268,158 µM
same,GI50,SF-295,1.02 µM
same,TGI,SF-295,158 µM
same,GI50,ACHN,1.95 µM
same,TGI,ACHN,112 µM
same,GI50,U-251,4.9 µM
same,TGI,U-251,240 µM
same,GI50,PC-3,1.78 µM
same,TGI,PC-3,174 µM
same,GI50,HOP-92,0.741 µM
same,TGI,HOP-92,24 µM
same,GI50,NCI-H23,1.07 µM
same,TGI,NCI-H23,22.9 µM
same,GI50,OVCAR-8,0.692 µM
same,TGI,OVCAR-8,60.3 µM
same,GI50,COLO 205,1.7 µM
same,TGI,COLO 205,8.91 µM
same,GI50,NCI-H522,0.912 µM
same,TGI,NCI-H522,6.31 µM
same,GI50,HCT-116,0.537 µM
same,TGI,HCT-116,16.2 µM
same,GI50,EKVX,1.91 µM
same,TGI,EKVX,123 µM
same,GI50,SK-MEL-2,0.933 µM
same,TGI,SK-MEL-2,10.7 µM
same,GI50,OVCAR-5,0.661 µM
same,TGI,OVCAR-5,47.9 µM
same,GI50,Hs-578T,7.41 µM
same,TGI,Hs-578T,182 µM
same,GI50,CAKI-1,0.537 µM
same,TGI,CAKI-1,15.8 µM
same,GI50,DU-145,0.794 µM
same,TGI,DU-145,135 µM
same,GI50,KM12,1.74 µM
same,TGI,KM12,31.6 µM
same,GI50,MDA-MB-231,1.95 µM
same,TGI,MDA-MB-231,166 µM
same,GI50,HCT-15,1.1 µM
same,TGI,HCT-15,51.3 µM
same,GI50,HOP-62,0.741 µM
same,TGI,HOP-62,28.8 µM
same,GI50,RPMI-8226,0.398 µM
same,TGI,RPMI-8226,20.9 µM
same,GI50,BT-549,3.63 µM
same,TGI,BT-549,162 µM
same,GI50,M14,0.589 µM
same,TGI,M14,14.5 µM
same,GI50,A549,3.55 µM
same,TGI,A549,105 µM
same,GI50,CCRF-CEM,0.155 µM
same,TGI,CCRF-CEM,25.7 µM
same,GI50,UO-31,1.48 µM
same,TGI,UO-31,32.4 µM
same,GI50,MCF7,0.708 µM
same,TGI,MCF7,42.7 µM
same,GI50,SK-MEL-5,3.55 µM
same,TGI,SK-MEL-5,16.6 µM
same,GI50,SK-OV-3,0.55 µM
same,TGI,SK-OV-3,16.6 µM
same,GI50,SW-620,18.6 µM
same,TGI,SW-620,63.1 µM
same,GI50,SF-539,1.02 µM
same,TGI,SF-539,69.2 µM
same,GI50,UACC-62,0.501 µM
same,TGI,UACC-62,4.57 µM
same,GI50,NCI-H322M,7.41 µM
same,TGI,NCI-H322M,224 µM
same,GI50,MOLT-4,0.269 µM
same,TGI,MOLT-4,15.5 µM
